Read-outs that look alike come from different tables or passages of the source.
What was measured:
G. lamblia WB strain = experiment: In vitro susceptibility assay, G. lamblia trophozoites; type: cell-based, Giardia lamblia
Procedure: (§1) G. lamblia WB strain, T. vaginalis GT3 strain, and E. histolytica strain HM1-IMSS were used in all experiments, all parasitic strains were obtained from the Unidad de Investigación Médica en Enfermedades Infecciosas y Parasitarias, Hospital de Pediatría, Instituto Mexicano del Seguro Social. In vitro susceptibility assays to determine IC50 values were performed using a method previously described. For this, 4 × 10^4 G. lamblia; 6 × 10^3 E. histolytica, or 4 × 10^4 T. vaginalis trophozoites were incubated for 48 h at 37 °C with different concentrations of quinoxaline derivatives T-137 to T-170 (0.5 ng/mL to 10 μg/mL) using dimethyl sulfoxide (DMSO) (0.05%) as solvent. Metronidazole and albendazole were used as positive controls, and parasites in the medium without drugs containing DMSO (0.05%) were included as negative controls. At the end of the incubation period, trophozoites were washed and subcultured for another 48 h in a fresh medium without drugs. Then, trophozoites were counted with a haemocytometer and the IC50 was calculated by Probit analysis. Experiments were carried out in triplicate and repeated at least twice.

T. vaginalis GT3 strain = experiment: In vitro susceptibility assay, T. vaginalis trophozoites; type: cell-based, Trichomonas vaginalis
Procedure: as §1

[1] = test system: E. histolytica strain HM1-IMSS; experiment: In vitro susceptibility assay, E. histolytica trophozoites; type: cell-based, Entamoeba histolytica
Procedure: as §1

[2] = test system: murine macrophage cell line J774.2; experiment: Cytotoxic evaluation, MTT colorimetric assay; type: cell-based; settings: murine macrophages J774.2, read-out: Cytotoxicity (Macrophages J774.2) (CC50)
Procedure: The murine macrophage cell line J774.2 was maintained in culture flasks with RPMI 1640 medium supplemented with 10% FBS, and 100 U/mL antibiotic-antifungal mixture (Gibco). Cells were incubated at 37 °C with 5% CO2 and humidity. Murine macrophage cell line J774.2 is maintained at Laboratorio de Estudios Epidemiológicos, Clínicos, Diseños Experimentales e Investigación, Facultad de Ciencias Químicas, Universidad Autónoma “Benito Juárez” de Oaxaca. Macrophages were washed and viability was assessed by the MTT colorimetric assay. In a 96-well microplate, 1 × 10^5 macrophages were added per well and a dose-response assay was performed. Compounds were evaluated using serial dilutions to determine half-maximal cytotoxic concentration (CC50) values in triplicate considering 0.2% DMSO as negative control.

[3] = molecular target: T1, recombinant E. histolytica thioredoxin reductase (EhTRXR) (Entamoeba histolytica, UniProt C4LW95); experiment: Inhibition of EhTrxR DTNB reductase activity; type: biochemical; settings: for inhibition at 100 µM: pH 7, read-out: EhTrxR inhibitory effect (disulphide reductase activity)
T1 construct: His-tag (pET28a) (N); made in house; host or cells: E. coli BL21 (DE3)
T1 sequence (C4LW95 1-314): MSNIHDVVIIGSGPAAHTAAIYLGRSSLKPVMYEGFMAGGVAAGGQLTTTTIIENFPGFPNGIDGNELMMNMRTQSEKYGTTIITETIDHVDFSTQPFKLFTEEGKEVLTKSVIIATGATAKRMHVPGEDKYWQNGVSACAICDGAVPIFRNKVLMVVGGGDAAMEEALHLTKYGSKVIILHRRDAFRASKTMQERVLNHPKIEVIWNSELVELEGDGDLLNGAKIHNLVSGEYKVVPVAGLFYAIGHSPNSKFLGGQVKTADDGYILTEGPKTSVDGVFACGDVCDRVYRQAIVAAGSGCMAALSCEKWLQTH
Procedure: Recombinant E. histolytica thioredoxin reductase (EhTRXR) was expressed in E. coli BL21 (DE3) as His-tag (N-terminal) recombinant proteins using pET28a vector, and it was purified using IMAC as previously described. 5,5′-Dithiobis(2-nitrobenzoic acid) (DTNB) reductase activity was measured by monitoring the production of thionitrobenzoate at 405 nm in a reaction mixture comprising 50 mM potassium phosphate, pH 7.0, 2 mM EDTA, 300 µM NADPH, 5 mM DTNB, and 0.1 µM EhTRXR. Activity was calculated using the molar extinction coefficient at 405 nm of 13.6 mM^−1cm^− 1 and considering that 1 mol of NADPH yields 2 mol of thionitrobenzoate. The enzyme assays were performed at 30 °C, in a final volume of 50 μL, and using a Multiskan Ascent one-channel vertical light path filter photometer (Thermo Electron Co.). All results represent the arithmetic mean of at three independent experiments.

[4] = Giardia duodenalis, 48 h, read-out: G. lamblia (IC50 nM), trophozoites, 48 h at 37 °C, subcultured 48 h, Probit analysis
[5] = Trichomonas vaginalis, GT3, 48 h, read-out: T. vaginalis (IC50 nM), trophozoites, 48 h at 37 °C, subcultured 48 h, Probit analysis
[6] = Entamoeba histolytica, 48 h, read-out: E. histolytica (IC50 nM), trophozoites, 48 h at 37 °C, subcultured 48 h, Probit analysis
[7] = read-out: T. vaginalis (IC50 nM), trophozoites, 48 h at 37 °C, subcultured 48 h, Probit analysis
[8] = read-out: E. histolytica (IC50 nM), trophozoites, 48 h at 37 °C, subcultured 48 h, Probit analysis

Row | SMILES | IC50 (G. lamblia WB strain; [4]) [nM] | IC50 (T. vaginalis GT3 strain; [5]) [nM] | IC50 [1, 6] [nM] | CC50 [2] [nM] | IC50 (T. vaginalis GT3 strain; [7]) [nM] | IC50 [1, 8] [nM] | inhibition at 100 µM [3] [%] | Selectivity index, E. histolytica versus macrophages ([1]; CC50 J774.2 / IC50 E. histolytica) [fold] | IC50 ([3]; DTNB reductase activity, 30 °C, pH 7.0) [nM] | IC50 (G. lamblia WB strain; read-out: G. lamblia (IC50 nM), trophozoites, 48 h at 37 °C, subcultured 48 h, Probit analysis) [nM]
1 | CCCSc1ccc2nc(NC(=O)OC)[nH]c2c1 [Albendazole, reference compound] | 49 ± 5.65 | 1830 ± 86.7 | 44000 ± 2470 | – | – | – | – | – | – | –
2 | CCCCOC(=O)c1ccc2c(c1)[n+]([O-])c(C(C)=O)c(C)[n+]2[O-] [Compound T-137] | 77 ± 9.43 | 258 ± 6.29 | 83.3 ± 1.57 | 58400 ± 1120 | – | – | – | – | – | –
3 | CCCCOC(=O)c1ccc2c(c1)[n+]([O-])c(C(=O)OC)c(C)[n+]2[O-] [Compound T-138] | 48.5 ± 1.5 | 88 | ~40 | 46200 ± 3260 | 88.3 ± 12 | 40.4 ± 4.49 | – | – | – | –
4 | CCCCOC(=O)c1ccc2c(c1)[n+]([O-])c(C(=O)OCC)c(C)[n+]2[O-] [Compound T-139] | 47.4 ± 5.75 | ~100 | ~30 | > 200000 | 103 ± 2.87 | 34.5 ± 7.18 | – | – | – | –
5 | CCCCOC(=O)c1ccc2c(c1)[n+]([O-])c(C(=O)OC(C)(C)C)c(C)[n+]2[O-] [Compound T-140] | 49.2 ± 2.66 | ~100 | ~30 | > 200000 | 101 ± 3.99 | 29.2 ± 2.66 | 50 to 75 | – | – | –
6 | CCCCOC(=O)c1ccc2c(c1)[n+]([O-])c(C(=O)OCc1ccccc1)c(C)[n+]2[O-] [Compound T-141] | 70.7 ± 1.22 | 166 ± 6.1 | ~40 | > 200000 | – | 40.2 ± 2.44 | – | – | – | –
7 | CCCCOC(=O)c1ccc2c(c1)[n+]([O-])c(C(=O)c1ccccc1)c(C)[n+]2[O-] [Compound T-142] | 36.8 ± 0.66 | < 90 | 9.2 ± 1.32 | 17600 ± 2140 | 81.5 ± 3.95 | – | 50 to 75 | 1918 | – | –
8 | CCCCOC(=O)c1ccc2c(c1)[n+]([O-])c(C(=O)Nc1ccc(C)cc1C)c(C)[n+]2[O-] [Compound T-144] | 46.1 ± 1.18 | 118 ± 4.73 | 47.3 ± 4.73 | – | – | – | – | – | – | –
9 | CCCCOC(=O)c1ccc2c(c1)[n+]([O-])c(C(C)=O)c(C(F)(F)F)[n+]2[O-] [Compound T-145] | 40.3 ± 6.72 | 108 ± 16.1 | 57.8 ± 6.72 | > 200000 | – | – | > 75 | – | 16000 | –
10 | CCCCOC(=O)c1ccc2c(c1)[n+]([O-])c(C(=O)c1ccccc1)c(C(F)(F)F)[n+]2[O-] [Compound T-148] | 39.2 ± 3.46 | < 90 | 16.1 ± 3.46 | 48400 ± 1650 | 82.9 ± 8.06 | – | 50 to 75 | – | – | –
11 | CCCCOC(=O)c1ccc2c(c1)[n+]([O-])c(C(=O)c1cccs1)c(C(F)(F)F)[n+]2[O-] [Compound T-149] | < 30 | 97.7 ± 9.09 | 18.2 ± 2.27 | – | – | – | 50 to 75 | – | – | 27.3 ± 2.27
12 | CCCCOC(=O)c1ccc2c(c1)[n+]([O-])c(C(=O)c1ccc3ccccc3c1)c(C(F)(F)F)[n+]2[O-] [Compound T-150] | 51.6 ± 2.27 | 124 ± 2.27 | 36.1 ± 1.14 | > 200000 | – | – | – | – | – | –
13 | CCCCOC(=O)c1ccc2c(c1)[n+]([O-])c(C(=O)Nc1ccccc1)c(-c1ccccc1)[n+]2[O-] [Compound T-151] | 114 ± 4.38 | 153 ± 3.28 | 65.6 ± 2.19 | 44100 ± 3450 | – | – | – | – | – | –
14 | CC(=O)c1c(C)[n+]([O-])c2ccc(C(=O)OCC(C)C)cc2[n+]1[O-] [Compound T-155] | – | 192 ± 6.29 | 58.2 ± 1.57 | 87220 ± 213 | – | – | 50 to 75 | – | – | –
15 | COC(=O)c1c(C)[n+]([O-])c2ccc(C(=O)OCC(C)C)cc2[n+]1[O-] [Compound T-156] | 95.8 ± 4.49 | 248 ± 5.99 | 59.9 ± 5.99 | – | – | – | – | – | – | –
16 | Cc1c(C(=O)c2ccccc2)[n+]([O-])c2cc(C(=O)OCC(C)C)ccc2[n+]1[O-] [Compound T-157] | 43.4 ± 1.32 | 153 ± 6.58 | 55.2 ± 5.26 | 34200 ± 3040 | – | – | 50 to 75 | – | – | –
17 | Cc1c(C(=O)Nc2ccccc2)[n+]([O-])c2cc(C(=O)OCC(C)C)ccc2[n+]1[O-] [Compound T-158] | 62 ± 1.27 | 164 ± 10.1 | 38 ± 2.53 | > 200000 | – | – | – | – | – | –
18 | CC(C)COC(=O)c1ccc2c(c1)[n+]([O-])c(C(=O)c1ccccc1)c(C(F)(F)F)[n+]2[O-] [Compound T-163] | 34.5 ± 2.3 | 100 ± 5.76 | 57.6 ± 2.3 | – | – | – | 50 to 75 | – | – | –
19 | CC(C)COC(=O)c1ccc2c(c1)[n+]([O-])c(C(=O)c1cccs1)c(C(F)(F)F)[n+]2[O-] [Compound T-164] | 107 ± 9.21 | 118 ± 10.5 | 27.3 ± 5.26 | 43800 ± 1890 | – | – | – | – | – | –
20 | CC(C)COC(=O)c1ccc2c(c1)[n+]([O-])c(C(=O)c1ccco1)c(C(F)(F)F)[n+]2[O-] [Compound T-165] | 101 ± 2.36 | 125 ± 2.36 | 30.6 ± 2.36 | 81800 ± 3590 | – | – | – | – | – | –
21 | CC(C)COC(=O)c1ccc2c(c1)[n+]([O-])c(C(=O)c1ccc3ccccc3c1)c(C(F)(F)F)[n+]2[O-] [Compound T-166] | 41.3 ± 2.07 | 82.6 ± 4.13 | 50.6 ± 5.17 | – | – | – | – | – | – | –
22 | Cc1ncc([N+](=O)[O-])n1CCO [Metronidazole, reference compound] | 1150 ± 40.9 | 210 ± 8.76 | 251 ± 5.48 | – | – | – | – | – | – | –

Source: article PMC11523249, “Expanding the antiprotozoal activity and the mechanism of action of n-butyl and iso-butyl ester of quinoxaline-1,4-di-N-oxide derivatives against Giardia lamblia, Trichomonas vaginalis, and Entamoeba histolytica. An in vitro and in silico approach” (Journal of Enzyme Inhibition and Medicinal Chemistry, 2024)
